Results: ChEMBL document CHEMBL4007454 (J Med Chem, 2017)

Experiments:
[1] = system: MDR1 (human); experiment: Apparent permeability in pig LLC-PK1 cells expressing human MDR1; type: ADME, cell-based, Sus scrofa
[2] = Efflux ratio of permeability […] in pig LLC-PK1 cells expressing rat MDR1; type: ADME, cell-based, Sus scrofa
[3] = Efflux ratio of permeability […] in pig LLC-PK1 cells expressing human MDR1; type: ADME, cell-based, Sus scrofa
[4] = Intrinsic clearance in rat hepatocytes assessed per million cells at 1 uM after 180 mins by LC-MS/MS analysis; type: ADME, cell-based, Hepatocyte; conditions: read-out: CLH
[5] = Intrinsic clearance in human hepatocytes assessed per million cells at 1 uM after 180 mins by LC-MS/MS analysis; type: ADME, cell-based, Hepatocyte; conditions: read-out: CLH
[6] = biological target: T1, Leucine-rich repeat serine/threonine-protein kinase 2 (Homo sapiens, UniProt Q5S007, G2019S); experiment: Inhibition of recombinant human GST-tagged LRRK2 (970 to 2527 residues) G2019S mutant expressed in baculovirus using fluorescein-ERM as substrate preincubated for 30 mins followed by substrate addition measured after 1 hr by TR-FRET assay
[7] = biological target: T1, Leucine-rich repeat serine/threonine-protein kinase 2; experiment: Inhibition LRRK2 G2019S mutant Ser935 phosphorylation in human SH-SY5Y cells after 90 mins by Western blot analysis; type: cell-based
[8] = biological target: T1, Leucine-rich repeat serine/threonine-protein kinase 2; experiment: Inhibition of recombinant human GST-tagged LRRK2 (970 to 2527 residues) G2019S mutant expressed in baculovirus using fluorescein-ERM as substrate preincubated for 30 mins followed by substrate addition measured after 1 hr in presence of 5 mM ATP by TR-FRET assay
[9] = biological target: Mitogen-activated protein kinase 1 (Homo sapiens) (UniProt P28482); experiment: Inhibition of recombinant human full length GST-tagged ERK2 expressed in Escherichia coli at 1 uM
[10] = Half life in Han-Wistar rat at 2 mg/kg, iv measured after 2 to 480 mins by LC-MS/MS analysis; type: ADME, organism-based; conditions: in vivo
[11] = AUC (0 to 8 hrs) in Han-Wistar rat at 2 mg/kg, iv measured after 2 to 480 mins by LC-MS/MS analysis; type: ADME, organism-based; parameters: time < 8 hr, dose 2 mg/kg, route intravenous; conditions: in vivo
[12] = biological target: T2, Dual specificity protein kinase TTK (Homo sapiens) (UniProt P33981); experiment: Inhibition of recombinant human full length GST-tagged TTK expressed in baculovirus; conditions: concentration not given here
T2 sequence (whole entry): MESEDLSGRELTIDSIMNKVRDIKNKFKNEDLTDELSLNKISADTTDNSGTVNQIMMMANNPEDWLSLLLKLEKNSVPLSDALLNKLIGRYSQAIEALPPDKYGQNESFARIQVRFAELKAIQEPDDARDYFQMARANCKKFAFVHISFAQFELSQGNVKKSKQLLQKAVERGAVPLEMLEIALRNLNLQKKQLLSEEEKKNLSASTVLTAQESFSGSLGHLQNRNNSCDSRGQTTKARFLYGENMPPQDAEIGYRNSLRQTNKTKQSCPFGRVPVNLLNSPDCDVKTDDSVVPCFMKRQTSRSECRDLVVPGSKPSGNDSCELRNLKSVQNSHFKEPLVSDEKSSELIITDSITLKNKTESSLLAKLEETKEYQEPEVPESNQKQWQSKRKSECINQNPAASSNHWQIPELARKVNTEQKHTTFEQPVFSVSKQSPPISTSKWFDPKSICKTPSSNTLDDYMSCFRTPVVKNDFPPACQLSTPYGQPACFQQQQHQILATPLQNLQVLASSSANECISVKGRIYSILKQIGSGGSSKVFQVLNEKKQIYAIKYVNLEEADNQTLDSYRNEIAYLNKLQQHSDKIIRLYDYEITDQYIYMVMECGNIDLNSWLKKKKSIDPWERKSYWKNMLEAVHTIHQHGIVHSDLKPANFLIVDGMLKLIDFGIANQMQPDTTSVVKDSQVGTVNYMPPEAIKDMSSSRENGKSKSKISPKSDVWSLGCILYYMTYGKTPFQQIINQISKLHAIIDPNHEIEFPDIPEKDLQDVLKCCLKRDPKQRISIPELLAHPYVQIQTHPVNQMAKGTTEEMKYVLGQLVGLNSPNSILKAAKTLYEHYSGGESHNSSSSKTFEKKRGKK

[13] = biological target: Leucine-rich repeat serine/threonine-protein kinase 2 (Homo sapiens, UniProt Q5S007); experiment: Inhibition of wild type human recombinant LRRK2 expressed in baculovirus using fluorescein-ERM as substrate preincubated for 30 mins followed by substrate addition measured after 1 hr by TR-FRET assay
[14] = system: Cerebrospinal fluid; experiment: Drug level in rat Cerebrospinal fluid at 5 mg/kg, ip; type: ADME, organism-based; conditions: in vivo, read-out: Drug uptake
[15] = system: Plasma; experiment: Unbound plasma concentration in rat at 5 mg/kg, ip; type: ADME, organism-based; conditions: in vivo

T1 sequence (Q5S007 whole entry G2019S, the tested form may be a part): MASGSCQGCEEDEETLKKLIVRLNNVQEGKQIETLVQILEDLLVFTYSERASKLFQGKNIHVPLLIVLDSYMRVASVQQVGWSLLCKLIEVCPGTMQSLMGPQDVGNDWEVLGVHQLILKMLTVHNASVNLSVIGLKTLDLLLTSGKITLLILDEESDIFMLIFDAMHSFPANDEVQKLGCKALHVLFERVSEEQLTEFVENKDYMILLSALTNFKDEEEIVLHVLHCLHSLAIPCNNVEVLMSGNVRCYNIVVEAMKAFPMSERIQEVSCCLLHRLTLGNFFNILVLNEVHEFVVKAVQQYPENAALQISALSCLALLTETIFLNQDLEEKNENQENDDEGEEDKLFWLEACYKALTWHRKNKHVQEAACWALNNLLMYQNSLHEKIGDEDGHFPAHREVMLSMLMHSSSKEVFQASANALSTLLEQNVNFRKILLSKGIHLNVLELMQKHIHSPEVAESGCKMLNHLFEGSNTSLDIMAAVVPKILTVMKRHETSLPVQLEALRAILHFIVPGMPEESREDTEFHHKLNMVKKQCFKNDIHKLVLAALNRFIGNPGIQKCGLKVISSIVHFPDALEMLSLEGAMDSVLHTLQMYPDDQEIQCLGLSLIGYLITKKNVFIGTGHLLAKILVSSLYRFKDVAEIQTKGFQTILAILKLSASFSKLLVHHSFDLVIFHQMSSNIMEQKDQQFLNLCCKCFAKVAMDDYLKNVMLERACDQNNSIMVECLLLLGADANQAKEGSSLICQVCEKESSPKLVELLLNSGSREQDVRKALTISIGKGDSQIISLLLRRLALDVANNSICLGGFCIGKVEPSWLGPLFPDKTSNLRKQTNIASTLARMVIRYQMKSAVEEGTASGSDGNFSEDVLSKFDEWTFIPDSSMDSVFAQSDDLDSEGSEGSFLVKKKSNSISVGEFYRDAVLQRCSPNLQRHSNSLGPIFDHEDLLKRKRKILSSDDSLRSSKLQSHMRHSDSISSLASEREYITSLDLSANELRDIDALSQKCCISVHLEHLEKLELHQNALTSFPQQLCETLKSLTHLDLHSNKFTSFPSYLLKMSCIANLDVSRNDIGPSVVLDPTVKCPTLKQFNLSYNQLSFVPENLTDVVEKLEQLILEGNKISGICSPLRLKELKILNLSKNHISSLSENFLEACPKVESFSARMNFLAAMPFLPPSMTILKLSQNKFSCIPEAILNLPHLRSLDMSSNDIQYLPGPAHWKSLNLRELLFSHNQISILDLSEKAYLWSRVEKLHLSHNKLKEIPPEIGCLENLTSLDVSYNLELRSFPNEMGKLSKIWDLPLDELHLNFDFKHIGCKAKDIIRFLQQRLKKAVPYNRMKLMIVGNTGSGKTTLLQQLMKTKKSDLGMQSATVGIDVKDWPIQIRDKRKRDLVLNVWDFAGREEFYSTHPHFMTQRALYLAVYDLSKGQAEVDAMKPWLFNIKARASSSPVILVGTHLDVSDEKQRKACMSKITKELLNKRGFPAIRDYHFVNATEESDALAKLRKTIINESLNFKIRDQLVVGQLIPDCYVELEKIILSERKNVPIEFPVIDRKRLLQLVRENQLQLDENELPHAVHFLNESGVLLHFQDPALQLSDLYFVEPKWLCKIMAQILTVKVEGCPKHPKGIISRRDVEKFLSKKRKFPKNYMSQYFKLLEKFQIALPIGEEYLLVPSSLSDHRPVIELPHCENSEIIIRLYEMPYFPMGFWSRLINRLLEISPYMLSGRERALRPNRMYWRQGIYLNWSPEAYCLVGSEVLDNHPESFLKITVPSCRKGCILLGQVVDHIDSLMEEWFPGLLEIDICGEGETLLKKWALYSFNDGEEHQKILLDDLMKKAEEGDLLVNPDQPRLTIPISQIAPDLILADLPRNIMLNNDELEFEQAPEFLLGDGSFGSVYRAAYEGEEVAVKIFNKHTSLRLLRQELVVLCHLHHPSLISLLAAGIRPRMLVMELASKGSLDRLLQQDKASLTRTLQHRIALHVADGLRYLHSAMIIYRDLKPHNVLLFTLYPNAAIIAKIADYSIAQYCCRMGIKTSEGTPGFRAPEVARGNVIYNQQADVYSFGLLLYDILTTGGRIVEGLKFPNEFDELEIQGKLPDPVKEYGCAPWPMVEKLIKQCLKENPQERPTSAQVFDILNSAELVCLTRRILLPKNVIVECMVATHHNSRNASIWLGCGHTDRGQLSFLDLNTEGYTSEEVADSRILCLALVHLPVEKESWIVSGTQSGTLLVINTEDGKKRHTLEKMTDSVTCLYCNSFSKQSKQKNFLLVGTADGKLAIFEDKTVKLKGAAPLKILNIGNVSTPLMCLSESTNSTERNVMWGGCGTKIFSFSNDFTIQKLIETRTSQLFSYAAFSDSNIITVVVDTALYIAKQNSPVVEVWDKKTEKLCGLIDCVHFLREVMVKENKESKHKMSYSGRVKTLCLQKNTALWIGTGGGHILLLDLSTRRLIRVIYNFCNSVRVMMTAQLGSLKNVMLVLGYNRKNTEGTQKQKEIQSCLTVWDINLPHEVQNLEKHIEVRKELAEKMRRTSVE
Chain of Leucine-rich repeat serine/threonine-protein kinase 2 (Homo sapiens, UniProt Q5S007) (Q5S007 whole entry): as the sequence (Q5S007 whole entry G2019S, the tested form may be a part) above, with S2019G counted along it
Chain of Mitogen-activated protein kinase 1 (Homo sapiens) (P28482 whole entry): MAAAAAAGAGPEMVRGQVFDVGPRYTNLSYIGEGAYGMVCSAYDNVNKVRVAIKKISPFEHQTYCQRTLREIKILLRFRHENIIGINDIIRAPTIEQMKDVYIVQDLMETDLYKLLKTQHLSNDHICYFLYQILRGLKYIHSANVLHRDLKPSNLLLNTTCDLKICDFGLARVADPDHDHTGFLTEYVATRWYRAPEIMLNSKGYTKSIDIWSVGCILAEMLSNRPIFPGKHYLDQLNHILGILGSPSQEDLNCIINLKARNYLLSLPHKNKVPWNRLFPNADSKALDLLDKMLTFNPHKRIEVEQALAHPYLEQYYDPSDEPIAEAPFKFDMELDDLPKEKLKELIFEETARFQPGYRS

| Structure (SMILES) | Papp [1] [nm/s] | Ratio [2] | Ratio [3] | hepatocyte CLint at 1 µM [4] [µL/min/1e6 cells] | hepatocyte CLint at 1 µM [5] [µL/min/1e6 cells] | IC50 [6] [µM] | IC50 [7] [µM] | also measured |
| --- | --- | --- | --- | --- | --- | --- | --- | --- |
| O=S(=O)(c1ccc2[nH]nc(-c3ccnc(N4CCOCC4)c3)c2c1)C1CC1 | 350 | 44 | 20 | 15 | 7.3 | – | – | – |
| COCCNc1cc(-c2n[nH]c3ccccc23)ccn1 | – | – | – | – | – | 0.098 | – | – |
| CC(C)Oc1ccc2[nH]nc(-c3cc(N4CCOCC4)ncn3)c2c1 | 380 | 0.4 | 0.6 | 13 | 6 | – | 0.041 | – |
| c1ccc2c(-c3ccncc3)n[nH]c2c1 | – | – | – | – | – | 0.904 | – | – |
| c1cnnc(-c2ccc3[nH]nc(-c4ccnc(N5CCOCC5)c4)c3c2)c1 | 320 | 38 | 16 | 6 | 10 | – | – | – |
| CC1(Oc2ccc3[nH]nc(-c4cc(N5CCN(S(C)(=O)=O)CC5)ncn4)c3c2)CC1 | 300 | 12 | 2.2 | 10 | – | 0.0022 | 0.0076 | – |
| Cn1cc(-c2ccc3[nH]nc(-c4ccnc(N5CCOCC5)c4)c3c2)cn1 | 380 | 6.3 | 1.5 | 31 | 7 | – | – | – |
| CC(C)Oc1ccc2[nH]nc(-c3ccnc(N4CCC(n5cnnc5)CC4)c3)c2c1 | 460 | 41 | 40 | 19 | 2 | – | 0.194 | IC50 [8]: 0.069 µM |
| c1ccc(-c2n[nH]c3ccccc23)nc1 | – | – | – | – | – | 6.19 | – | – |
| C[C@@H]1CN(c2cc(-c3n[nH]c4ccc(OC5(C)CC5)cc34)ncn2)CCO1 | 280 | 0.4 | 0.3 | 15 | 7 | 0.002 | 0.005 | IC50 [8]: 0.013 µM |
| CC(C)Oc1ccc2[nH]nc(-c3ccnc(N4CCN(C)C(=O)C4)c3)c2c1 | 380 | 15 | 3.2 | 38 | 16 | – | 0.059 | IC50 [8]: 0.091 µM |
| N#Cc1ccc2[nH]nc(-c3ccnc(N4CCOCC4)c3)c2c1 | 340 | 1.3 | 0.7 | – | – | 0.064 | – | – |
| c1ccc2c(-c3cncc(N4CCOCC4)c3)n[nH]c2c1 | 380 | 0.5 | 0.4 | – | – | 0.256 | – | – |
| C[C@H]1CN(c2cc(-c3n[nH]c4ccc(OC5(C)CC5)cc34)ncn2)CCO1 | 270 | 0.5 | 0.5 | 26 | 7 | – | 0.0038 | IC50 [8]: 0.076 µM |
| c1cncc(-c2n[nH]c3ccccc23)c1 | – | – | – | – | – | 1.23 | – | – |
| c1cc(-c2n[nH]c3ccc(C4CC4)cc23)cc(N2CCOCC2)n1 | 250 | 0.1 | 0.2 | 52 | 31 | 0.013 | – | – |
| CC(C)Oc1ccc2[nH]nc(-c3ccnc(N4CCOCC4)c3)c2c1 | 300 | 0.7 | 0.5 | 49 | 22 | 0.0007 | 0.043 | inhibition [9]: 41%; half-life [10]: 1 h; AUC(0-t) at 8 h [11]: 1000 nM·h; inhibition [12]: 91% |
| c1cc(-c2n[nH]c3ccc(OC4CC4)cc23)cc(N2CCOCC2)n1 | 310 | 0.3 | 0.3 | 32 | 37 | 0.041 | – | – |
| CC(C)Oc1ccc2[nH]nc(-c3ccnc(N4CCN(C)CC4)c3)c2c1 | 270 | 1.7 | 0.6 | 36 | 7 | 0.0008 | 0.052 | – |
| CC(C)Oc1ccc2[nH]nc(-c3ccnc(N4CCN(S(C)(=O)=O)CC4)c3)c2c1 | 290 | 0.6 | 0.4 | 32 | 7 | – | 0.083 | IC50 [8]: 0.014 µM |
| Nc1cc(-c2n[nH]c3ccc(Nc4ccccc4)cc23)ccn1 | – | – | – | – | – | – | – | IC50 [13]: 0.728 µM |
| CC(C)Oc1ccc2[nH]nc(-c3ccnc(N4C[C@@H](F)[C@H](F)C4)c3)c2c1 | 310 | 0.7 | 0.4 | 39 | 25 | 0.0066 | 0.341 | IC50 [8]: 0.128 µM |
| CN(c1cccc(S(C)(=O)=O)c1)c1ccc2[nH]nc(-c3ccncc3)c2c1 | – | – | – | – | – | – | – | IC50 [13]: 0.044 µM; concentration [14]: 0.036 µM; Cp(f) [15]: 0.042 µM |
| c1ccc2c(-c3ccnc(N4CCOCC4)c3)n[nH]c2c1 | 190 | 0.2 | 0.3 | – | – | 0.012 | – | – |
| CC1(Oc2ccc3[nH]nc(-c4cc(N5CCOCC5)ncn4)c3c2)CC1 | 350 | – | – | 18 | 8 | – | – | – |
| c1ccc2c(-c3cc(N4CCOCC4)ncn3)n[nH]c2c1 | – | – | – | 30 | 9 | – | – | – |
| COc1ccc2[nH]nc(-c3ccnc(N4CCOCC4)c3)c2c1 | 330 | 0.4 | 0.2 | 28 | 23 | 0.015 | – | – |
